Laboratory results as given in patent publication US10717733B2, “Haloallylamine indole and azaindole derivative inhibitors of lysyl oxidases and uses thereof” (PHARMAXIS LTD., priority 2016, dated 2020).
Counter-ions that a name gives are not always drawn.

Legend:
Assay type in all cases: biochemical
[1] = biological target: Bovine LOX (Bos taurus (Bovine), UniProt P33072); experiment: LOX inhibition, peroxidase-coupled Amplex Red amine oxidase assay; settings: 30 min preincubation at 37° C., putrescine substrate
Text: (§1) Method to Determine the Ability of Compounds of the Invention to Inhibit LOX and LOXL1-4 from Different Sources
Lysyl oxidase (LOX) is an extracellular copper dependent enzyme which oxidizes peptidyl lysine and hydroxylysine residues in collagen and lysine residues in elastin to produce peptidyl alpha-aminoadipic-delta-semialdehydes. […] There are five LOX family members; these are LOX, LOXL1, LOXL2, LOXL3 and LOXL4. LOX and LOXL family members can be acquired as recombinant active proteins from commercial sources, or extracted from animal tissues like bovine aorta, tendons, pig skin; or prepared from cell cultures. The inhibitory effects of the compounds of the present invention were tested against the given LOX-LOXL preparation using a high-throughput coupled colorimetric method (Holt A. and Palcic M., A peroxidase-coupled continuous absorbance plate-reader assay for flavin monoamine oxidases, copper-containing amine oxidases and related enzymes. Nat. Protoc. 2006; 1: 2498-2505). The assay was developed using either 384 or 96 well format. Briefly, in a standard 384 well plate assay 25 μL of a dilution of any of the isoenzymes and orthologues in 1.2 M urea, 50 mM sodium borate buffer (pH 8.2) were added into each well in the presence of 1 μM mofegiline and 0.5 mM pargyline (to inhibit SSAO and MAO-B and MAO-A, respectively). […] of a reaction mixture containing twice the KM concentration of putrescine (Sigma Aldrich, e.g. 20 mM for LOX, or 10 mM for LOXL2 and LOXL3), 120 μM Amplex Red (Sigma Aldrich) and 1.5 U/mL horseradish peroxidase (Sigma Aldrich) prepared in 1.2 M urea, 50 mM sodium borate buffer (pH 8.2) were then added to the corresponding wells. The above volumes were doubled in the case of 96 wells plate. The fluorescence (RFU) was read every 2.5 min for 30 min at a range of temperatures from 37° to 45° C., excitation 565 nm and emission 590 (Optima; BMG labtech). The slope of the kinetics for each well was calculated using MARS data analysis software (BMG labtech) and this value was used to deduce the IC50 value (Dotmatics).

[2] = biological target: Human LOXL2 (Homo sapiens (Human), UniProt Q9Y4K0); experiment: LOXL2 inhibition, peroxidase-coupled Amplex Red amine oxidase assay; settings: 30 min preincubation at 37° C., putrescine substrate
Text: as §1
Lysyl oxidase (LOX) is an extracellular copper dependent enzyme which oxidizes peptidyl lysine and hydroxylysine residues in collagen and lysine residues in elastin to produce peptidyl alpha-aminoadipic-delta-semialdehydes. […] There are five LOX family members; these are LOX, LOXL1, LOXL2, LOXL3 and LOXL4. LOX and LOXL family members can be acquired as recombinant active proteins from commercial sources, or extracted from animal tissues like bovine aorta, tendons, pig skin; or prepared from cell cultures. The inhibitory effects of the compounds of the present invention were tested against the given LOX-LOXL preparation using a high-throughput coupled colorimetric method (Holt A. and Palcic M., A peroxidase-coupled continuous absorbance plate-reader assay for flavin monoamine oxidases, copper-containing amine oxidases and related enzymes. Nat. Protoc. 2006; 1: 2498-2505). The assay was developed using either 384 or 96 well format. Briefly, in a standard 384 well plate assay 25 μL of a dilution of any of the isoenzymes and orthologues in 1.2 M urea, 50 mM sodium borate buffer (pH 8.2) were added into each well in the presence of 1 μM mofegiline and 0.5 mM pargyline (to inhibit SSAO and MAO-B and MAO-A, respectively). Test compounds were dissolved in DMSO and tested in a Concentration Response Curve (CRC) with 11 data points, typically in the micromolar or nanomolar range after incubation with the enzyme for 30 min at 37° C. Twenty five L of a reaction mixture containing twice the KM concentration of putrescine (Sigma Aldrich, e.g. 20 mM for LOX, or 10 mM for LOXL2 and LOXL3), 120 μM Amplex Red (Sigma Aldrich) and 1.5 U/mL horseradish peroxidase (Sigma Aldrich) prepared in 1.2 M urea, 50 mM sodium borate buffer (pH 8.2) were then added to the corresponding wells. The above volumes were doubled in the case of 96 wells plate. The fluorescence (RFU) was read every 2.5 min for 30 min at a range of temperatures from 37° to 45° C., excitation 565 nm and emission 590 (Optima; BMG labtech). The slope of the kinetics for each well was calculated using MARS data analysis software (BMG labtech) and this value was used to deduce the IC50 value (Dotmatics).

[3] = biological target: human recombinant SSAO/VAP-1 (Homo sapiens (Human), UniProt Q16853); experiment: Inhibition of human recombinant SSAO/VAP-1 amine oxidase activity; settings: 30 min preincubation at 37° C., 600 μM benzylamine
Experimental: Method to Determine the Ability of Compounds of Formula I to Inhibit Human Recombinant SSAO/VAP-1
Human recombinant SSAO/VAP-1 amine oxidase activity was determined using the coupled colorimetric method as described for monoamine oxidase, copper-containing amine oxidases and related enzymes (Holt A. and Palcic M., A peroxidase-coupled continuous absorbance plate-reader assay for flavin monoamine oxidases, copper-containing amine oxidases and related enzymes. Nat Protoc 2006; 1: 2498-2505). Briefly, a cloned cDNA template corresponding to residues 34-763 of human SSAO/VAP-1, and incorporating a mouse Ig kappa (κ) signal sequence, N-terminal flag epitope tag and tobacco etch virus (TEV) cleavage site, was assembled in a mammalian expression vector (pLO-CMV) by Geneart AG. This vector containing human SSAO/VAP-1 residues was transfected into CHO-K1 glycosylation mutant cell line, Lec 8. A clone stably expressing human SSAO/VAP-1 was isolated and cultured in large scale. Active human SSAO/VAP-1 was purified and recovered using immunoaffinity chromatography. This was used as the source for SSAO/VAP-1 activity. A high-throughput colorimetric assay was developed using either 96 or 384 well format. Briefly, in a standard 96 well plate assay 50 μL of purified human SSAO/VAP-1 (0.25 μg/mL) in 0.1 M sodium phosphate buffer (pH 7.4) was added into each well. Test compounds were dissolved in DMSO and tested in a Concentration Response Curve (CRC) with 4-11 data points, typically in the micromolar or nanomolar range after incubation with human SSAO/VAP-1 for 30 min at 37° C. After 30 min incubation, 50 μL of the reaction mixture containing 600 μM benzylamine (Sigma Aldrich), 120 μM Amplex Red (Sigma Aldrich) and 1.5 U/mL horseradish peroxidase (Sigma Aldrich) prepared in 0.1 M sodium phosphate buffer (pH 7.4) were added to the corresponding well. The fluorescence unit (RFU) was read every 2.5 min for 30 min at 37° C. excitation 565 nm and emission 590 (Optima; BMG labtech). The slope of the kinetics for each well was calculated using MARS data analysis software (BMG labtech) and this value was used to deduce the IC50 value (Dotmatics).

[4] = biological target: Recombinant human MAO-B (Homo sapiens (Human), UniProt P27338); experiment: Inhibition of human recombinant MAO-B; settings: benzylamine 100 μM
Experimental: Method to Determine the Ability of Compounds of Formula I to Inhibit Human Recombinant MAO-B
The specificity of the compounds of this invention was tested by determining their ability to inhibit MAO-B activities in vitro. Recombinant human MAO-B (0.06 mg/mL; Sigma Aldrich) was used as source of MAO-B enzyme activities. The assay was performed in a similar way as for human SSAO/VAP-1 (Example 66) except, the substrate benzylamine was used at 100 μM.

Chain of Human LOXL2 (Q9Y4K0 26-774): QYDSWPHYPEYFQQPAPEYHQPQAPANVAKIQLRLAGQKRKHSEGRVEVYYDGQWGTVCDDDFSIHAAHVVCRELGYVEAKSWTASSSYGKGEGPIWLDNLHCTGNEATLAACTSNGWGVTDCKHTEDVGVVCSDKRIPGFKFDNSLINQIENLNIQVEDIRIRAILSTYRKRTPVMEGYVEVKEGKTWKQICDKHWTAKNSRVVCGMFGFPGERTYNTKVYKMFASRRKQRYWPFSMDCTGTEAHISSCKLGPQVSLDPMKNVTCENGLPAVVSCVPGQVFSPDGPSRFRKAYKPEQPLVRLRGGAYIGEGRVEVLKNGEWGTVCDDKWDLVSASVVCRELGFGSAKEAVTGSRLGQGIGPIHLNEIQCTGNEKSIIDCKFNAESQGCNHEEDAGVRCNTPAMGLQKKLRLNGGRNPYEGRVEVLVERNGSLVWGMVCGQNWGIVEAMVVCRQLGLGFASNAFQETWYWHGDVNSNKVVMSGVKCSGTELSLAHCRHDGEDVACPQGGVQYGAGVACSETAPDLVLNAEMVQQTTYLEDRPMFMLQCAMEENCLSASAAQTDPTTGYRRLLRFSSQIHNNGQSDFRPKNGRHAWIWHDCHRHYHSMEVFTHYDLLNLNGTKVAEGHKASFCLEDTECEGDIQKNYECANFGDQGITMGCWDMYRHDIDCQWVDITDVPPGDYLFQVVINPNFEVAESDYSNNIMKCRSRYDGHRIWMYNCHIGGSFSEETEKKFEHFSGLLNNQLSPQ
Chain of human recombinant SSAO/VAP-1 (Q16853 34-763): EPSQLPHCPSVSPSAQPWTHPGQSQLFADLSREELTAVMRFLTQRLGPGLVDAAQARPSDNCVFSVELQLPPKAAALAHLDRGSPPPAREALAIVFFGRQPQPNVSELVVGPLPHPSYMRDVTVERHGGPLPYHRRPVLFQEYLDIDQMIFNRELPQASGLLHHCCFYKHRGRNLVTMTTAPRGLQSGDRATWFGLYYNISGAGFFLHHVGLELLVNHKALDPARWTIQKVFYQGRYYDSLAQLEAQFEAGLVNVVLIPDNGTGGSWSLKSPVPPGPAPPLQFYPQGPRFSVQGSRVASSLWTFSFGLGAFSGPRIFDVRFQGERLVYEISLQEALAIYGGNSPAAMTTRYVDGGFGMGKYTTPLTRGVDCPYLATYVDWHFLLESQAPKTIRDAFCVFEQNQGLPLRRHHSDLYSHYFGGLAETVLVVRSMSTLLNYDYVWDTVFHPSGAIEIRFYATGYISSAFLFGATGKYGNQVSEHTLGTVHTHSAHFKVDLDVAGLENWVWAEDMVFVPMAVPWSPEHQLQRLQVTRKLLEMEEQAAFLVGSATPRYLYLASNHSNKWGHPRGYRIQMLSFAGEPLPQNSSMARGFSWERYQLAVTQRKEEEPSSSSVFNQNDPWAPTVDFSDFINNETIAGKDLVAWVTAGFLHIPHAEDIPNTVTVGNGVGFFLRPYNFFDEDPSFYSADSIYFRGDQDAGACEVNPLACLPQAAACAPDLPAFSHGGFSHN
Chain of Bovine LOX (P33072 170-418): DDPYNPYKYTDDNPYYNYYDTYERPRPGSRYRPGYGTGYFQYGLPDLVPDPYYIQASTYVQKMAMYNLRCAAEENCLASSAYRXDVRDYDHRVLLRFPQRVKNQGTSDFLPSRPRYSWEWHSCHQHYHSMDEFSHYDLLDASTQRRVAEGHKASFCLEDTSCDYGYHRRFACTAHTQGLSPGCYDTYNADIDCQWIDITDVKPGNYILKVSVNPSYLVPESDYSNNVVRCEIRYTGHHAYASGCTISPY
Chain of Recombinant human MAO-B (P27338 whole entry): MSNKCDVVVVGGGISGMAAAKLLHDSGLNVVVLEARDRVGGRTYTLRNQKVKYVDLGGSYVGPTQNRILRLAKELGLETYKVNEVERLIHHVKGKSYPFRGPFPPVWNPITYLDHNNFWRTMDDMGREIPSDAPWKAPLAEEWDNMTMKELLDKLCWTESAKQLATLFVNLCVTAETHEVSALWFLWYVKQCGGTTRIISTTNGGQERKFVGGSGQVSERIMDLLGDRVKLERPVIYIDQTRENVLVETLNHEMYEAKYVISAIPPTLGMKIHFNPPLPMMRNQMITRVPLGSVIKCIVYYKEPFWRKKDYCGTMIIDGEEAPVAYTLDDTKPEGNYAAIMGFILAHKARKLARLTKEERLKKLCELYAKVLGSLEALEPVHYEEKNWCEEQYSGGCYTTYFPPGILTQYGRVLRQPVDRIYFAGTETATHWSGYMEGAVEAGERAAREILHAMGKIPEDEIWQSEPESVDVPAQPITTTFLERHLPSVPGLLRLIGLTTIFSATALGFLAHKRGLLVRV

`CN(C)S(=O)(=O)c1cncc(-c2c(Cl)n(C/C(F)=C/CN)c3ccccc23)c1` [Compound 96, (Z)-5-(1-(4-amino-2-fluorobut-2-en-1-yl)-2-chloro-1H-indol-3-yl)-N,N-dimethylpyridine-3-sulfonamide] was tested, and the IC50 [1] was greater than 0.3 µM, the IC50 [2] was less than 0.3 µM and the IC50 [3] was greater than 3 µM. It also gave an IC50 [4] greater than 3 µM.
Compound `Cc1cc(-c2c(C)n(C/C(F)=C/CN)c3ccc(S(C)(=O)=O)cc23)ccn1` [Compound 94, (Z)-3-fluoro-4-(2-methyl-3-(2-methylpyridin-4-yl)-5-(methylsulfonyl)-1H-indol-1-yl)but-2-en-l-amine, Dihydrochloride] has an IC50 [1] greater than 0.3 µM, an IC50 [2] of less than 0.3 µM and an IC50 [3] greater than 3 µM. The IC50 [4] was greater than 3 µM.
`Cc1c(-c2cccc(S(=O)(=O)N(C)C)c2)c2ncc(F)cc2n1C/C(F)=C/CN` [Compound 108, (Z)-3-(1-(4-amino-2-fluorobut-2-en-1-yl)-6-fluoro-2-methyl-1H-pyrrolo[3,2-b]pyridin-3-yl)-N,N-dimethylbenzenesulfonamide] gave an IC50 [1] greater than 0.3 µM, an IC50 [2] of less than 0.3 µM and an IC50 [3] greater than 3 µM. For the same compound, the IC50 [4] was greater than 3 µM.
For `Cc1c(-c2cccc(Cl)c2)c2cc(C(=O)O)ccc2n1C/C(F)=C/CN` [Compound 28, (Z)-1-(4-amino-2-fluorobut-2-en-1-yl)-3-(3-chlorophenyl)-2-methyl-1H-indole-5-carboxylic acid], the IC50 [1] was greater than 0.3 µM, the IC50 [2] was less than 0.3 µM and the IC50 [3] was greater than 3 µM. It also gave an IC50 [4] greater than 3 µM.
In the case of `Cc1c(-c2ccc(F)cc2)c2cc(S(C)(=O)=O)ccc2n1C/C(F)=C/CN` [Compound 93, (Z)-3-fluoro-4-(3-(4-fluorophenyl)-2-methyl-5-(methylsulfonyl)-1H-indol-1-yl)but-2-en-1-amine], the IC50 [1] is reported as greater than 0.3 µM, the IC50 [2] is reported as less than 0.3 µM and the IC50 [3] is reported as greater than 3 µM. For the same compound, the IC50 [4] was greater than 3 µM.
Work on `Cc1c(-c2cccc(S(=O)(=O)N(C)C)c2)c2cc(Cl)ccc2n1C/C(F)=C/CN` [Compound 62, (Z)-3-(1-(4-amino-2-fluorobut-2-en-1-yl)-5-chloro-2-methyl-1H-indol-3-yl)-N,N-dimethylbenzenesulfonamide] yielded an IC50 [1] greater than 0.3 µM, an IC50 [2] of less than 0.3 µM and an IC50 [3] greater than 3 µM. For the same compound, the IC50 [4] was greater than 3 µM.
For `Cc1c(-c2cncc(S(N)(=O)=O)c2)c2cc(Cl)ccc2n1C/C(F)=C/CN` [Compound 83, (Z)-5-(1-(4-amino-2-fluorobut-2-en-1-yl)-5-chloro-2-methyl-1H-indol-3-yl)pyridine-3-sulfonamide], the IC50 [1] was greater than 0.3 µM, the IC50 [2] was less than 0.3 µM and the IC50 [3] was greater than 3 µM. The IC50 [4] was greater than 3 µM.
`Cc1c(-c2cccc(S(=O)(=O)N(C)C)c2)c2nc(C(=O)NC(C)C)ccc2n1C/C(F)=C/CN` [Compound 45, (Z)-1-(4-amino-2-fluorobut-2-en-1-yl)-3-(3-(N,N-dimethylsulfamoyl)phenyl)-N-isopropyl-2-methyl-1H-pyrrolo[3,2-b]pyridine-5-carboxamide] showed an IC50 [1] greater than 0.3 µM, an IC50 [2] of less than 0.3 µM and an IC50 [3] greater than 3 µM. The IC50 [4] was greater than 3 µM.
Work on `Cc1c(-c2ccc(F)cc2)c2cc(C(=O)O)ccc2n1C/C(F)=C/CN` [Compound 23, (Z)-1-(4-amino-2-fluorobut-2-en-1-yl)-3-(4-fluorophenyl)-2-methyl-1H-indole-5-carboxylic acid] yielded an IC50 [1] greater than 0.3 µM, an IC50 [2] of less than 0.3 µM and an IC50 [3] greater than 3 µM. It also gave an IC50 [4] greater than 3 µM.
With `Cc1c(-c2cccc(S(=O)(=O)N(C)C)c2)c2cc(C(=O)NC(C)C)ccc2n1C/C(F)=C/CN` [Compound 35, (Z)-1-(4-amino-2-fluorobut-2-en-1-yl)-3-(3-(N,N-dimethylsulfamoyl)phenyl)-N-isopropyl-2-methyl-1H-indole-5-carboxamide] the IC50 [1] was greater than 0.3 µM, the IC50 [2] was less than 0.3 µM and the IC50 [3] was greater than 3 µM. It also gave an IC50 [4] greater than 3 µM.
For `COC(=O)c1ccc2c(c1)c(-c1cccc(S(=O)(=O)N(C)C)c1)c(C)n2C/C(F)=C/CN` [Compound 5, Hydrochloride], the IC50 [1] was greater than 0.3 µM, the IC50 [2] was less than 0.3 µM and the IC50 [3] was greater than 3 µM. The IC50 [4] was greater than 3 µM.
Work on `Cc1c(-c2cccc(S(=O)(=O)N(C)C)c2)c2cc(-c3nn[nH]n3)ccc2n1C/C(F)=C/CN` [Compound 29, (Z)-3-(1-(4-amino-2-fluorobut-2-en-l-yl)-2-methyl-5-(2H-tetrazol-5-yl)-1H-indol-3-yl)-N,N-dimethylbenzenesulfonamide, Hydrochloride] yielded an IC50 [1] greater than 0.3 µM, an IC50 [2] of less than 0.3 µM and an IC50 [3] greater than 3 µM. For the same compound, the IC50 [4] was greater than 3 µM.
Compound `CCOC(=O)c1ccc2c(n1)c(-c1cccc(S(=O)(=O)N(C)C)c1)c(C)n2C/C(F)=C/CN` [Compound 42, (Z)-ethyl 1-(4-amino-2-fluorobut-2-en-1-yl)-3-(3-(N,N-dimethylsulfamoyl)phenyl-2-methyl-1H-pyrrolo[3,2-b]pyridine-5-carboxylate, Dihydrochloride] has an IC50 [1] greater than 0.3 µM, an IC50 [2] of less than 0.3 µM and an IC50 [3] greater than 3 µM. It also gave an IC50 [4] greater than 3 µM.
`Cc1c(-c2cccc(C(F)(F)F)c2)c2cc(C(=O)N(C)C)ccc2n1C/C(F)=C/CN` [Compound 56, (Z)-1-(4-amino-2-fluorobut-2-en-1-yl)-N,N,2-trimethyl-3-(3-(trifluoromethyl)phenyl)-1H-indole-5-carboxamide] gave an IC50 [1] greater than 0.3 µM, an IC50 [2] of less than 0.3 µM and an IC50 [3] greater than 3 µM. It also gave an IC50 [4] greater than 3 µM.
